Columns and labels:
[1] = target: T1, recombinant human PKM2 (Homo sapiens, UniProt P14618); test: Human PKM2 activation assay (Kinase-Glo Plus luminescent detection of generated ATP); format: biochemical; settings: for Emax: percentage activation normalised to DMSO vehicle (LOW) and 5 μM TEPP-46 (HIGH), read-out: hPKM2 Emax; for EC50: recombinant human PKM2 activation, 4-parameter logistic fit, read-out: hPKM2 EC50
T1 construct: His (N); purchased R&D Systems
How it was run: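 N-His-tagged recombinant hPKM2 ([…]) with PEP and ADP was incubated with compound for 60 min at 26 °C, shaking, in 50 mM imidazole, 50 mM KCl, 7 mM MgCl2, 0.01% Tween20, 0.05% BSA, pH 7.2. ATP produced was read by Kinase-Glo Plus luminescence after 15 min.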

[2] = system: A549 cells; test: A549 cell proliferation in low-serine medium (CellTiter-Glo 2.0 viable cell number); format: cell-based; settings: Homo sapiens, 72 h, 3 days, Assay Medium with 20 μM L-serine
Procedure: The effect of compounds of Formula (Ia) on A549 cell proliferation in low-serine medium was assessed using a luminescence assay of viable cell number (CellTiter-Glo® 2.0, Promega) duplexed with a fluorescent cytotoxicity assessment (CelITox™ Green, Promega). Cell culture reagents were from ThermoFisher unless specified otherwise. Assay reagents were from Sigma-Aldrich unless specified otherwise. Test Compounds were prepared as 10 mM DMSO stocks and dilution series prepared in DMSO for direct dilution into culture medium.
Cells were passaged every 3-4 days at 80-90% confluence. The cell monolayer was washed twice with room-temperature Ca^2+/Mg-free PBS and 4 ml room-temperature trypsin-EDTA added to the flask. After 5 minutes' incubation (37° C., 5% CO2) to detach cells, trypsin was quenched with 13 ml warmed complete growth medium and the cells harvested and diluted to 2.4×10^4 cells/ml for dispensing into 384-well clear-bottom black-walled plates (600 cells/well).
Following overnight incubation, growth medium was aspirated from each well and the cells washed twice with Assay Medium comprising Basal Medium Eagle supplemented with 3% heat-inactivated dialysed FBS plus 2 mM L-glutamine plus 20 μM L-serine (Sigma-Aldrich). After aspiration of the final wash medium, Assay Medium containing Test Compound was added to each well. DMSO vehicle controls were included on each plate.
Cells were incubated for 3 days in a humidified incubator (37° C., 5% CO2) at which point CelITox™ Green and CellTiter-Glo® reagents were prepared according to the manufacturer's instructions. Triton-X was added to HIGH wells for cytotoxicity determination and the plate incubated for 30 minutes (20° C., ambient humidity and pCO2). CelITox™ Green reagent was added to each well and the plate covered, placed on an orbital shaker @450 rpm for 2 minutes, and incubated in the dark for 15 minutes (20° C., ambient humidity and pCO2). Endpoint fluorescence was measured using a plate reader (PHERAstar® FSX, BMG Labtech).
Following cytotoxicity determination, CellTiter-Glo® reagent was added to each well and the plate placed on an orbital shaker @450 rpm for 2 minutes to lyse cells. Plates were incubated in the dark for 15-30 minutes (20° C., ambient humidity and pCO2) prior to endpoint luminescence measurement (PHERAstar® FSX, BMG Labtech).
Proliferation was calculated by normalizing luminescence signals to LOW controls obtained from a parallel plate processed at the time of Test Compound challenge and HIGH (DMSO vehicle) wells from the compound plate. IC50 values were determined from a 4-parameter logistic fit of compound concentration-response curves.

T1 sequence (P14618 2-531 limits assumed): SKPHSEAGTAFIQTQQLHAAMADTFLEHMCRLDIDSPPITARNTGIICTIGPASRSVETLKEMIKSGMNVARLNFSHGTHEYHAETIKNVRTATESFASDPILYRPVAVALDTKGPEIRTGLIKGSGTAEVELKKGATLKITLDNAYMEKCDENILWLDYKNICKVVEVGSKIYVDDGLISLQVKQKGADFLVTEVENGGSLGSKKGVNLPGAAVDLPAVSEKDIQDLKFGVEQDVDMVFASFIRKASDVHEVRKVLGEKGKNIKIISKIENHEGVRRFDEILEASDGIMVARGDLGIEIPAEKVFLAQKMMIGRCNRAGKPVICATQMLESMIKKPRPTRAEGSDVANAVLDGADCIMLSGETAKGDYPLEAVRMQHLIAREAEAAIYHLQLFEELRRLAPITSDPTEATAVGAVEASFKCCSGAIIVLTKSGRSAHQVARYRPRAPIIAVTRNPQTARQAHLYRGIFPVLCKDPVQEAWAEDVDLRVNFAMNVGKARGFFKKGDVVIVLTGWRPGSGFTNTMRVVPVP

Compound	Emax [1]	EC50 [1]	IC50 [2]
COc1ccc(Cn2ncc3cc(S(=O)(=O)c4ccccc4)ccc3c2=O)nc1 [Example 59, 2-((5-methoxypyridin-2-yl)methyl)-6-(phenylsulfonyl)phthalazin-1(2H)-one]	107%	68.9 nM	3.2 nM
COc1ccc(S(=O)(=O)c2ccc3c(=O)n(Cc4cc(C(C)C)cnc4O)ncc3c2)cc1 [Example 101, 2-((2-hydroxy-5-isopropylpyridin-3-yl)methyl)-6-(4-methoxyphenylsulfonyl)phthalazin-1(2H)-one]	74.5%	240 nM	354 nM
COc1ccc(F)c(Cn2ncc3cc(S(=O)(=O)c4ccccc4)ccc3c2=O)c1 [Example 33, 2-(2-fluoro-5-methoxybenzyl)-6-(phenylsulfonyl)phthalazin-1(2H)-one]	105%	63.3 nM	1.7 nM
COc1ccc(S(=O)(=O)c2ccc3c(=O)n(Cc4n[nH]c5ccccc45)ncc3c2)cc1 [Example 48, 2-((1H-indazol-3-yl)methyl)-6-((4-methoxyphenyl)sulfonyl)phthalazin-1(2H)-one]	85.8%	55.2 nM	1.6 nM
O=c1c2ccc(S(=O)(=O)c3ccccc3)cc2cnn1Cc1ccc2c(c1)OCO2 [Example 57, 2-(benzo[d][1,3]dioxol-5-ylmethyl)-6-(phenylsulfonyl)phthalazin-1(2H)-one]	109%	55 nM	2.3 nM
COc1ccc(S(=O)(=O)c2ccc3c(=O)n(Cc4n[nH]cc4C)ncc3c2)cc1 [Example 104, 6-((4-methoxyphenyl)sulfonyl)-2-((4-methyl-1H-pyrazol-3-yl)methyl)phthalazin-1(2H)-one]	104%	56.5 nM	1.2 nM
COc1ccc(S(=O)(=O)c2ccc3c(=O)n(Cc4cccc5c4CCN5)ncc3c2)cc1 [Example 2, 2-(indolin-4-ylmethyl)-6-((4-methoxyphenyl)sulfonyl)phthalazin-1(2H)-one]	97%	66.4 nM	0.8 nM
NC(=O)c1sccc1Cn1ncc2cc(S(=O)(=O)c3ccccc3)ccc2c1=O [Example 13, 3-((1-oxo-6-(phenylsulfonyl)phthalazin-2(1H)-yl)methyl)thiophene-2-carboxamide]	113%	117 nM	3.1 nM
COc1ccc(S(=O)(=O)c2ccc3c(=O)n(Cc4cc(F)cnc4O)ncc3c2)cc1 [Example 100, 2-((5-fluoro-2-hydroxypyridin-3-yl)methyl)-6-(4-methoxyphenylsulfonyl)phthalazin-1(2H)-one]	70.8%	677 nM	73.9 nM
Cn1ncc2cc(Cn3ncc4cc(S(=O)(=O)c5ccccc5)ccc4c3=O)ccc21 [Example 36, 2-((1-methyl-1H-indazol-5-yl)methyl)-6-(phenylsulfonyl)phthalazin-1(2H)-]	70%	207 nM	20.6 nM
COc1cccc(Cn2ncc3cc(S(=O)(=O)c4ccccc4)ccc3c2=O)n1 [Example 37, 2-((6-methoxypyridin-2-yl)methyl)-6-(phenylsulfonyl)phthalazin-1(2H)-one]	118%	133 nM	3.6 nM
O=c1c2ccc(S(=O)(=O)c3ccccc3)cc2cnn1Cc1cccnc1 [Example 65, 6-(phenylsulfonyl)-2-(pyridin-3-ylmethyl)phthalazin-1(2H)-one]	98.6%	360 nM	17.4 nM
Cc1ncc(Cn2ncc3cc(S(=O)(=O)c4ccccc4)ccc3c2=O)s1 [Example 30, 2-((2-methylthiazol-5-yl)methyl)-6-(phenylsulfonyl)phthalazin-1(2H)-one]	99.4%	739 nM	15.8 nM
NC(=O)Cc1ccccc1Cn1ncc2cc(S(=O)(=O)c3ccccc3)ccc2c1=O [Example 61, 2-(2-((1-oxo-6-(phenylsulfonyl)phthalazin-2(1H)-yl)methyl)phenyl)acetamide]	67.2%	564 nM	15.8 nM
COc1ccc(S(=O)(=O)c2ccc3c(=O)n(Cc4ccc(C)nc4O)ncc3c2)cc1 [Example 98, 2-((2-hydroxy-6-methylpyridin-3-yl)methyl)-6-(4-methoxyphenylsulfonyl)phthalazin-1(2H)-one]	82%	257 nM	9 nM
CC1Cc2cc(Cn3ncc4cc(S(=O)(=O)c5ccccc5)ccc4c3=O)ccc2O1 (stereo not drawn) [Example 64, 2-((2-methyl-2,3-dihydrobenzofuran-5-yl)methyl)-6-(phenylsulfonyl)phthalazin-1(2H)-one]	96.4%	45 nM	2.1 nM
NC(=O)c1c[nH]nc1Cn1ncc2cc(S(=O)(=O)c3ccccc3)ccc2c1=O [Example 15, 3-((1-oxo-6-(phenylsulfonyl)phthalazin-2(1H)-yl)methyl)-1H-pyrazole-4-carboxamide]	124%	243 nM	15.8 nM
CCn1ccc(Cn2ncc3cc(S(=O)(=O)c4ccccc4)ccc3c2=O)n1 [Example 11, 2-((1-ethyl-1H-pyrazol-3-yl)methyl)-6-(phenylsulfonyl)phthalazin-1(2H)-one]	99%	72.4 nM	3.9 nM
O=c1c2ccc(S(=O)(=O)c3ccccc3)cc2cnn1Cc1ccccc1F [Example 32, 2-(2-fluorobenzyl)-6-(phenylsulfonyl)phthalazin-1(2H)-one]	99.6%	163 nM	3.2 nM
COc1cncc(Cn2ncc3cc(S(=O)(=O)c4ccccc4)ccc3c2=O)c1 [Example 31, 2-((5-methoxypyridin-3-yl)methyl)-6-(phenylsulfonyl)phthalazin-1(2H)-one]	74.9%	809 nM	42 nM
NC(=O)c1ncccc1Cn1ncc2cc(S(=O)(=O)c3ccccc3)ccc2c1=O [Example 9, 3-((1-oxo-6-(phenylsulfonyl)phthalazin-2(1H)-yl)methyl)picolinamide]	105%	362 nM	17.5 nM
O=c1c2ccc(S(=O)(=O)c3ccccc3)cc2cnn1Cc1cc2ccccn2n1 [Example 108, 6-(phenylsulfonyl)-2-(pyrazolo[1,5-a]pyridin-2-ylmethyl)phthalazin-1(2H)-one]	132%	178 nM	2 nM
COc1ccc(S(=O)(=O)c2ccc3c(=O)n(Cc4ccn(C)n4)ncc3c2)cc1 [Example 72, 6-((4-methoxyphenyl)sulfonyl)-2-((1-methyl-1H-pyrazol-3-yl)methyl)phthalazin-1(2H)-one]	103%	35.9 nM	3.2 nM
O=c1c2ccc(S(=O)(=O)c3ccccc3)cc2cnn1Cc1ccc2c(c1)OCCO2 [Example 29, 2-((2,3-dihydrobenzo[b][1,4]dioxin-6-yl)methyl)-6-(phenylsulfonyl)phthalazin-1(2H)-one]	85%	33.7 nM	0.8 nM
O=c1c2ccc(S(=O)(=O)c3ccccc3)cc2cnn1C(F)(F)c1cccnc1 [Example 78, 2-(difluoro(pyridin-3-yl)methyl)-6-(phenylsulfonyl)phthalazin-1(2H)-one]	99%	802 nM	89.1 nM
Cn1ncc2ccc(Cn3ncc4cc(S(=O)(=O)c5ccccc5)ccc4c3=O)cc21 [Example 39, 2-((1-methyl-1H-indazol-6-yl)methyl)-6-(phenylsulfonyl)phthalazin-1(2H)-one]	71.9%	150 nM	7.4 nM
COc1ccc(S(=O)(=O)c2ccc3c(=O)n(Cc4cccn(C)c4=O)ncc3c2)cc1 [Example 4, 6-((4-methoxyphenyl)sulfonyl)-2-((1-methyl-2-oxo-1,2-dihydropyridin-3-yl)methyl)phthalazin-1(2H)-one]	106%	53.9 nM	0.7 nM
O=c1c2ccc(S(=O)(=O)c3ccccc3)cc2cnn1Cc1ccc2cn[nH]c2c1 [Example 58, 2-((1H-indazol-6-yl)methyl)-6-(phenylsulfonyl)phthalazin-1(2H)-one]	88.6%	477 nM	41.8 nM

— US20260152487A1 (Sitryx Therapeutics Limited, priority 2021, published 2026)
